Measured values: patent publication US6737383B1, “Herbicidal oxadiazolidines” (priority 1999, dated 2004)

Legend:
wheat = test: Test B pre/postemergence wheat; type: in vivo, Triticum aestivum
How it was run: (§1)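 Response is a visual 0-to-10 score relative to untreated plants, where 0 means no effect and 10 means complete control, taken twelve to sixteen days after application. Treatments went onto soil at planting and onto foliage of 1- to 4-leaf plants, using a surfactant-containing non-phytotoxic solvent.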

wild oat = test: Test B pre/postemergence wild oat; type: in vivo, Avena fatua
How it was run: as §1

crabgrass = test: Test B pre/postemergence crabgrass; type: in vivo, Digitaria sanguinalis
How it was run: as §1

rice = test: Test B flood test rice; type: in vivo, Oryza sativa; details: for Plant response rating, Rice (0 to 10 scale, 0 is no effect, 10 is complete control): Rate 62 g/ha; for Plant response rating, Rice (0 to 10 scale, 0 is no effect, 10 is complete control) / Rice plant response rating (0 to 10 scale, 0 is no effect, 10 is complete control): visual evaluation after twelve to sixteen days; for Rice plant response rating (0 to 10 scale, 0 is no effect, 10 is complete control): under heading Pre-emergence
How it was run: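 Read-out is a visual response score from 0 (no effect) to 10 (complete control), assigned by comparison with untreated controls. Treatment was applied at the 2-leaf stage, and plants stayed in the greenhouse for twelve to sixteen days before scoring.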

[1] = Preemergence, Rate 62 g/ha, scale of 0 to 10 where 0 is no effect and 10 is complete control
[2] = Preemergence, Rate 250 g/ha, scale of 0 to 10 where 0 is no effect and 10 is complete control
[3] = Preemergence, Rate 500 g/ha, scale of 0 to 10 where 0 is no effect and 10 is complete control
[4] = Rate 62 g/ha, Postemergence, scale 0 to 10 (0 no effect, 10 complete control)
[5] = Rate 125 g/ha, Postemergence, scale of 0 to 10 where 0 is no effect and 10 is complete control
[6] = Rate 250 g/ha, Postemergence, scale of 0 to 10 where 0 is no effect and 10 is complete control
[7] = Rate 500 g/ha, Pre-emergence, flood test species, scale 0 to 10 (0 no effect, 10 complete control)
[8] = Postemergence, Rate 62 g/ha, scale 0 to 10, 0 is no effect, 10 is complete control
[9] = Postemergence, Rate 125 g/ha, scale of 0 to 10 where 0 is no effect and 10 is complete control
[10] = Postemergence, Rate 250 g/ha, scale of 0 to 10, 0 is no effect, 10 is complete control
[11] = Preemergence, Rate 125 g/ha, scale of 0 to 10 where 0 is no effect and 10 is complete control
[12] = Preemergence, Rate 250 g/ha, scale 0 to 10 (0 no effect, 10 complete control)
[13] = Postemergence, Rate 500 g/ha, scale of 0 to 10 where 0 is no effect and 10 is complete control
[14] = flood test species, Pre-emergence
[15] = Rate 125 g/ha, flood test species
[16] = Rate 250 g/ha, Pre-emergence (flood test species), scale 0 to 10, 0 is no effect, 10 is complete control
[17] = Rate 500 g/ha, Pre-emergence section of Table B, 0 to 10 scale (0 no effect, 10 complete control)
[18] = Postemergence, Rate 250 g/ha, scale 0 to 10
[19] = Preemergence, Rate 250 g/ha, scale 0 to 10, 0 is no effect, 10 is complete control
[20] = Preemergence, Rate 500 g/ha, scale 0 to 10, 0 is no effect, 10 is complete control
[21] = Rate 125 g/ha, Postemergence, scale 0 to 10, 0 is no effect, 10 is complete control
[22] = Rate 500 g/ha, Postemergence, scale 0 to 10, 0 is no effect, 10 is complete control

In the case of `CCN(C(=O)n1oc(=O)n(C2CCCCC2)c1=O)C1CCCCC1` [Compound 308], the “Wheat plant response rating” value (wheat; [1]) was 0, the “Wheat plant response rating (0 to 10 scale)” value (wheat; Preemergence, Rate 125 g/ha) was 0 and the “Wheat plant response rating” value (wheat; [2]) was 0. The “Wheat plant response rating” value (wheat; [3]) was 0, the “Wheat plant response rating” value (wheat; [4]) was 0 and the “Wheat plant response rating” value (wheat; [5]) was 0. The “Plant response rating, Wheat” value (wheat; [6]) was 0, the “Wild oats plant response rating” value (wild oat; [1]) was 0 and the “Wild oats plant response rating (0 to 10 scale)” value (wild oat; Preemergence, Rate 125 g/ha) was 0. For the same compound, the “Wild oats plant response rating” value (wild oat; [2]) was 0, the “Wild oats plant response rating” value (wild oat; [3]) was 0 and the “Wild oats plant response rating” value (wild oat; [4]) was 0. The “Wild oats plant response rating” value (wild oat; [5]) was 0, the “Plant response rating, Wild oats” value (wild oat; [6]) was 0 and the “Crabgrass plant response rating” value (crabgrass; [1]) was 0. The “Crabgrass plant response rating (0 to 10 scale)” value (crabgrass; Preemergence, Rate 125 g/ha) was 0, the “Crabgrass plant response rating” value (crabgrass; [2]) was 0 and the “Crabgrass plant response rating” value (crabgrass; [3]) was 0. The “Crabgrass plant response rating” value (crabgrass; [4]) was 0, the “Crabgrass plant response rating” value (crabgrass; [5]) was 0 and the “Plant response rating, Crabgrass” value (crabgrass; [6]) was 0. The “Rice plant response rating” value (rice; Pre-emergence, Rate 1000 g/ha, scale 0 to 10 (0 no effect, 10 complete control)) was 0, the “Rice plant response rating” value (rice; Rate 125 g/ha, Pre-emergence, flood test species, scale 0 to 10 where 0 is no effect and 10 is complete control) was 0 and the “Rice plant response rating” value (rice; Rate 250 g/ha, Pre-emergence, flood-test species, scale 0 to 10, 0 is no effect, 10 is complete control) was 0. For the same compound, the “Rice plant response rating” value (rice; [7]) was 0.

In the case of `C=C(Cl)Cn1c(=O)on(C(=O)N(c2ccc(F)cc2F)C(C)C)c1=O` [Compound 634], the “Plant response rating, Wheat” value (wheat; [8]) was 0, the “Plant response rating, Wheat” value (wheat; [9]) was 0 and the “Wheat plant response rating” value (wheat; [10]) was 0. For the same compound, the “Wheat plant response rating” value (wheat; [1]) was 0, the “Wheat plant response rating” value (wheat; [11]) was 0 and the “Plant response rating, Wheat” value (wheat; [12]) was 0. For the same compound, the “Plant response rating, Wheat” value (wheat; [3]) was 0, the “Plant response rating, Wild oats” value (wild oat; [8]) was 0 and the “Plant response rating, Wild oats” value (wild oat; [9]) was 0. The “Wild oats plant response rating” value (wild oat; [10]) was 0, the “Wild oats plant response rating” value (wild oat; [1]) was 2 and the “Wild oats plant response rating” value (wild oat; [11]) was 5. For the same compound, the “Plant response rating, Wild oats” value (wild oat; [12]) was 5, the “Plant response rating, Wild oats” value (wild oat; [3]) was 7 and the “Plant response rating, Crabgrass” value (crabgrass; [8]) was 0. For the same compound, the “Plant response rating, Crabgrass” value (crabgrass; [9]) was 3, the “Crabgrass plant response rating” value (crabgrass; [10]) was 7 and the “Plant response rating, Crabgrass” value (crabgrass; [13]) was 9. The “Crabgrass plant response rating” value (crabgrass; [1]) was 7, the “Crabgrass plant response rating” value (crabgrass; [11]) was 8 and the “Plant response rating, Crabgrass” value (crabgrass; [12]) was 10. The “Plant response rating, Crabgrass” value (crabgrass; [3]) was 10, the “Plant response rating, Rice (0 to 10 scale, 0 is no effect, 10 is complete control)” value (rice; [14]) was 0 and the “Rice plant response rating (0 to 10 scale, 0 is no effect, 10 is complete control)” value (rice; [15]) was 0. The “Rice plant response rating” value (rice; [16]) was 0 and the “Rice plant response rating” value (rice; [17]) was 0.

For `CC(C)N(C(=O)n1oc(=O)n(CCCl)c1=O)c1ccccc1` [Compound 469], the “Wheat plant response rating” value (wheat; [18]) was 3, the “Plant response rating, Wheat” value (wheat; [1]) was 0 and the “Plant response rating, Wheat” value (wheat; [11]) was 2. For the same compound, the “Wheat plant response rating” value (wheat; [19]) was 3, the “Wheat plant response rating” value (wheat; [20]) was 6 and the “Wheat plant response rating” value (wheat; [4]) was 0. For the same compound, the “Wheat plant response rating” value (wheat; [21]) was 0, the “Wild oats plant response rating” value (wild oat; [18]) was 3 and the “Plant response rating, Wild oats” value (wild oat; [1]) was 7. For the same compound, the “Plant response rating, Wild oats” value (wild oat; [11]) was 7, the “Wild oats plant response rating” value (wild oat; [19]) was 10 and the “Wild oats plant response rating” value (wild oat; [20]) was 10. For the same compound, the “Wild oats plant response rating” value (wild oat; [4]) was 0, the “Crabgrass plant response rating” value (crabgrass; [18]) was 9 and the “Crabgrass plant response rating” value (crabgrass; [13]) was 9. For the same compound, the “Plant response rating, Crabgrass” value (crabgrass; [1]) was 9, the “Plant response rating, Crabgrass” value (crabgrass; [11]) was 10 and the “Crabgrass plant response rating” value (crabgrass; [19]) was 10. For the same compound, the “Crabgrass plant response rating” value (crabgrass; [20]) was 10, the “Crabgrass plant response rating” value (crabgrass; [4]) was 3 and the “Crabgrass plant response rating” value (crabgrass; [21]) was 6. For the same compound, the “Plant response rating, Rice (0 to 10 scale, 0 is no effect, 10 is complete control)” value (rice; [14]) was 0, the “Rice plant response rating (0 to 10 scale, 0 is no effect, 10 is complete control)” value (rice; [15]) was 0 and the “Rice plant response rating” value (rice; [16]) was 0. The “Rice plant response rating” value (rice; [7]) was 0.

For `CC[C@H](C)n1c(=O)on(C(=O)N(c2ccc(Cl)cc2)C(C)C)c1=O` [Compound 664], the “Plant response rating, Wheat” value (wheat; [8]) was 0, the “Wheat plant response rating” value (wheat; [9]) was 0 and the “Wheat plant response rating” value (wheat; [1]) was 0. The “Wheat plant response rating” value (wheat; [11]) was 0, the “Plant response rating, Wheat” value (wheat; [12]) was 0 and the “Plant response rating, Wheat” value (wheat; [3]) was 5. For the same compound, the “Wheat plant response rating” value (wheat; [22]) was 2, the “Plant response rating, Wild oats” value (wild oat; [8]) was 0 and the “Wild oats plant response rating” value (wild oat; [9]) was 0. For the same compound, the “Wild oats plant response rating” value (wild oat; [1]) was 0, the “Wild oats plant response rating” value (wild oat; [11]) was 3 and the “Plant response rating, Wild oats” value (wild oat; [12]) was 3. For the same compound, the “Plant response rating, Wild oats” value (wild oat; [3]) was 7, the “Wild oats plant response rating” value (wild oat; [22]) was 7 and the “Plant response rating, Crabgrass” value (crabgrass; [8]) was 0. For the same compound, the “Crabgrass plant response rating” value (crabgrass; [9]) was 1, the “Crabgrass plant response rating” value (crabgrass; [10]) was 9 and the “Crabgrass plant response rating” value (crabgrass; [1]) was 4. The “Crabgrass plant response rating” value (crabgrass; [11]) was 8, the “Plant response rating, Crabgrass” value (crabgrass; [12]) was 9 and the “Plant response rating, Crabgrass” value (crabgrass; [3]) was 10. For the same compound, the “Crabgrass plant response rating” value (crabgrass; [22]) was 9, the “Plant response rating, Rice (0 to 10 scale, 0 is no effect, 10 is complete control)” value (rice; [14]) was 0 and the “Rice plant response rating (0 to 10 scale, 0 is no effect, 10 is complete control)” value (rice; [15]) was 0. The “Rice plant response rating” value (rice; [16]) was 0 and the “Rice plant response rating” value (rice; [17]) was 0.
